Each structure is given as a SMILES string.

Series [1] concerns the target T1, human progesterone receptor (hPR) (Homo sapiens, UniProt P06401).
T1 sequence (P06401 679-933 limits assumed): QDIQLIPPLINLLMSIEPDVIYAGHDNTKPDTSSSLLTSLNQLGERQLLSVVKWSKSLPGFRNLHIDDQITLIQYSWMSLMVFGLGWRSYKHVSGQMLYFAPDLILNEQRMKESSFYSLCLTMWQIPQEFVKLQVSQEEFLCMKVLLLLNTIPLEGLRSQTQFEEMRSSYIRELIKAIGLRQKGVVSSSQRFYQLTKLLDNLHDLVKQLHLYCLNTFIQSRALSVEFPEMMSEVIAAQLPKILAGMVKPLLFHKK
The series can be described thus: Radioligand binding, [3H]progesterone, hPR expressed in Sf9. The procedure: Full-length human mineralocorticoid receptor (hMR) to be used in radioligand binding was isolated from a human kidney cDNA library (Clontech, Palo Alto, CA). […] The hMR, hPR, and hAR cDNAs were subcloned in the eukaryotic expression vector pcDNA3. Methods for the expression of functionally active hMR, hAR and hPR utilizing the baculovirus expression system were described previously, [31].
Affinity of ligands to the soluble receptor was determined using vacuum filtration methods, preparing soluble receptors in 96-well Falcon polystyrene plates (BD Biosciences, Bedford, MA) in a total volume of 250 μl. […] Binding studies for ligands for hPR and hAR were determined using [1,2,6,7-3H(N)] […] Specific binding of 3H-progesterone for hPR and 3H-mibolerone for hAR was determined in the presence and absence of 1 μM mifepristone. Inhibition constants (Ki), were determined either from the Cheng-Prusoff equation[32], or directly using non-linear regression curve fitting to a three-parameter one-site competitive equation. […] Protein was measured using colorimetric detection and quantification of bicinchoninic acid (BCA Protein Assay, Pierce, Rockford, IL). […] Concentration response curves were analyzed statistically using a four-parameter logistic equation (Hill equation for sigmoid curves). […]

Series [2] can be described thus: Permeability (data not shown). Type of series: in vitro ADME.

As usually defined, the Ki is a measure of affinity in units of concentration, obtained from inhibition or displacement. With `O=c1[nH]c2ccc(/C=C3\c4ccc(F)cc4COc4cc(F)ccc43)cc2[nH]1` [Ly], the Ki in series [1] (hPR expressed in Sf9, [3H]progesterone 0.5 nM, read-out: Mean Ki ± SEM hPR) was 92 ± 19 nM. Moreover, in series [1] (selectivity), the “Ratio of Ki's hPR: hMR” value stood at 58. Moreover, the Permeability entry in series [2] is reported as “good permeability”.
